Data published in US20110092624A1, “INK COMPOSITION AND METHOD FOR PRODUCING THE SAME” (SEIKO EPSON CORPORATION, priority 2009, published 2011).

Assay: Solubility of acidic dye and by-product in solvents, rated by filter cake weight
Assay type: physicochemical
Details: 10 g solvent, filtered 0.2 μm, dried filter cake weighed
Description: The acidic dye was C. I. Acid Blue 290. The acidic dye was added to 10 g of each organic solvent and the organic solvent was agitated, whereby the acidic dye was dissolved in the organic solvent. A solution thereby obtained was filtered through an Omnipore membrane filter, having a pore size of 0.2 μm, available from Nihon Millipore K.K. A filter cake thereby obtained was dried and then weighed. A by-product represented by the following formula was measured for solubility in the same manner as that used to measure the acidic dye:
The solubility of the acidic dye and by-product in each organic solvent was evaluated on the basis of the weight of the filter cakes. Evaluation standards were as described below.
A rating of 5: 0 to less than 0.2 g of a filter cake
A rating of 4: 0.2 to less than 0.4 g of a filter cake
A rating of 3: 0.4 to less than 0.6 g of a filter cake
A rating of 2: 0.6 to less than 0.8 g of a filter cake
A rating of 1: 0.8 g or more of a filter cake

Substance: C. I. Acid Blue 290 [Acidic dye]
- Solubility rating (Acetone): 1 (A rating of 1: 0.8 g or more of a filter cake)
- Solubility rating (Acrylonitrile): 3 (A rating of 3: 0.4 to less than 0.6 g of a filter cake)
- Solubility rating (Chloroform): 4 (A rating of 4: 0.2 to less than 0.4 g of a filter cake)
- Solubility rating (Ethanol): 3 (A rating of 3: 0.4 to less than 0.6 g of a filter cake)
- Solubility rating (Hexane): 2 (A rating of 2: 0.6 to less than 0.8 g of a filter cake)
- Solubility rating (Methanol): 5 (A rating of 5: 0 to less than 0.2 g of a filter cake)
- Solubility rating (Tetrahydrofuran): 4 (A rating of 4: 0.2 to less than 0.4 g of a filter cake)
- Solubility rating (Water): 1 (A rating of 1: 0.8 g or more of a filter cake)
